Experimental data: patent publication US7829529B2, “Use of factor VIIa or a tissue factor antagonist for regulating gene expression and cell migration or chemotaxis” (Novo Nordisk Health Care A/G, priority 1999, dated 2010)
“Also recorded” adds a separate entry of the source. Starred links: 1 amine or outer side, 2 acyl side, 3 side chain; linkers in the order of their positions; H or OH if unused. Positions of bridges follow the written chain, without caps; N, C: chain ends. Non-standard residues stand in square brackets, D forms with d. Residues, ends and D or L forms follow the SMILES beside them. Chains are numbered I, II in the order given. Actinocin(9to1) = Cc1c2oc3c(C)ccc(C(=O)[*:1])c3nc-2c(C(=O)[*:2])c(N)c1=O; NMeV = CN[C@H](C(=O)O)C(C)C; Sar = CNCC(=O)O

What was measured:
[1] = tested on: Cyr61 mRNA in WI-38 cells; test: Northern blot analysis of Cyr61 expression; format: cell-based, human; conditions: for effect on VIIa-induced expression of Cyr61: 30 min preincubation, then VIIa 5 μg/ml 45 min, TAP 200 nM, actinomycin D and cycloheximide 10 μg/ml
Procedure: Northern Blot Analysis. Total RNA was prepared using TRIZOL reagent from quiescent monolayer of WI-38 cells that were exposed to VIIa and other materials as described in Results. Northern blot analysis was carried out using standard procedure. Briefly, 10 μg of total RNA was size fractionated by gel electrophoresis in 1% agarose/6% formaldehyde gels and transferred onto the nitrocellulose membrane by a capillary blot method. Northern blots were prehybridized at 42° C. with a solution containing 50% formamide, 5×SSC, 50 mM Tris.HCl, pH 7.5, 0.1% sodium pyrophosphate, 1% SDS, 1% polyvinylpyrrolidone, 1% Ficoll, 25 mM EDTA, 100 μg/ml denatured salmon sperm DNA and 1% BSA and hybridized with ^32P-labeled Cyr61 cDNA probe (106 cpm/ml). The hybridized membranes were exposed to either Dupont NEF or Fuji RX X-ray film. For quantification purposes, the membranes were exposed to phosphor screen for 1 to 4 h, and the exposed screens were analyzed in a Phosphorlmger (Molecular Dynamics) using “Image-quant” software. To obtain mean values, the units (counts) obtained from different experiments were normalized to an internal control (counts present in control-treated sample).
Confirmation of differential expression of Cyr61. To validate the data obtained in microarray, we have patiented the RNA samples from the control and VIIa-treated cells (the same RNA samples that have been used to prepare poly (A) RNA for probe generation in the microarray) to Northern blot analysis and probed with radiolabeled Cyr61 cDNA. […] However, the intensity of hybridization signal was much higher in RNA isolated from VIIa-treated cells (FIG. 11).
Kinetics of Vila-induced expression of Cyr61. To determine the kinetics of Cyr61 expression, quiescent fibroblasts were treated for varying time periods with 5 μg/ml VIIa. Total RNA was extracted and patiented to Northern blot analysis. […] The expression was peaked at about 45 min and thereafter declined to the base level in 2 to 3 h. Since it had been reported that expression of Cyr61 in mouse fibroblasts after stimulation with serum and growth factor was sustained for several hours (up to 8 to 10 h) before repression occurs, we have examined the effect of serum and PDGF on kinetics of Cyr61 expression in quiescent human fibroblasts, WI-38. […] Similar results obtained with serum-induced expression of Cyr61 (data not shown).
Factor VIIa-dose dependent induced expression of Cyr61. To determine dose-dependency of VIIa, quiescent fibroblasts were treated with varying doses FVIIa (0.1 to 5 μg/ml) for 45 min and then total RNA samples from the cells were patiented to Northern blot analysis.
Factor VIIa-catalytic activity is required for Cyr61 induction. To test whether VIIa catalytic activity is required for the induction of Cyr61, WI-38 cells were treated with VIIa and active-site inactivated FVIIa (FVIIai) for 45 min and the expression of Cyr61 was evaluated by Northern blot analysis. […] It is unlikely that VIIa-induced expression of Cyr61 in our experiments was the result of generation of down-stream coagulation factors, FXa and thrombin.
Involvement of transcriptional mechanism for the induction of Cyr61 mMRNA steady-state levels by VIIa. To investigate whether transcription is involved in VIIa-mediated increase in Cyr61 mRNA steady-state levels, quiescent WI-38 cells were incubated with actinomycin-D (10 μg/ml) for 30 min before the addition of VIIa for 45 min. […] This finding indicates a transcriptional mechanism for induction of Cyr61.
To investigate whether de novo protein synthesis is required for the induction of Cyr61 nRNA by VIIa, WI-38 cells were pretreated with the protein synthesis inhibitor cycloheximide before the cells were exposed to VIIa for 45 min.

[2] = tested on: Human foreskin fibroblasts AG1523; test: Chemotaxis assay, leading front technique in modified Boyden chamber, towards PDGF-BB; format: cell-based; conditions: for effect on enhanced migration response (hyperchemotaxis) transduced by FVIIa/TF: TAP 0.2-10 μM, Hirudin 5 U/ml; for effect on migration of fibroblasts in response to PDGF without FVIIa: no FVIIa present; for effect on FVIIa/TF-mediated chemotactic response to PDGF-BB: 30 min pretreatment
Procedure: Fibroblasts expressing active TF (FIG. 1A and FIG. 1B) were incubated with 100 nM of FVIIa and seeded in the upper part of the modified Boyden chamber; while media containing 10% FBS and PDGF-BB at different concentrations were added below the 150 μm micropore filter. The migration of the cells under conditions where medium containing 10% FBS without PDGF-BB was added below the filter was used as a measure of random migration, and calculated as 100% migration. A significant migration response was recorded at a concentration of 0.01 ng/ml PDGF-BB in cells stimulated by FVIIa compared to 1 ng/ml PDGF-BB for cells not ligated with FVIIa, i.e. a 100-fold difference in concentration (FIG. 2). At 0.01-0.1 ng/ml PDGF-BB the migration response to FVIIa increased dose dependently, starting at 25 nM and with a maximal effect at 50-100 nM FVIIa (FIG. 3A-D). […] To test whether the proteolytically active FVIIa was mandatory for the hyperchemotactic response to PDGF-BB, fibroblasts were also incubated with 100 nM FFR-FVIIa and assayed in the Boyden chamber in the same way (FIG. 2).
An irrelevant monoclonal IgG antibody did neither prevent hyperchemotaxis induced by FVIIa nor the inhibition of the migration response induced by FFR-FVIIa (data not shown).
Chemotaxis assay. The migration response of fibroblasts was assayed by means of the leading front technique in a modified Boyden chamber, as previously described (Siegbahn, A., Hanimacher, A., Westermark, B., Heldin, C-H. Differential effects of the various isoforms of platelet-derived growth factor on chemotaxis of fibroblasts, monocytes, and granulocytes. J. Clin. Invest. 85, 916-920 (1990) and Nistér, M., Hammacher, A., Mellström, K., Siegbahn, A., Rönnstrand, L., Westermark, B., Heldin, C-H. A glioma-derived PDGF A chain homodimer has different functional activities from a PDGF AB heterodimer purified from human platelets. Cell 52, 791-799 (1988)). Micropore filters (pore size 8 μm) were coated with a solution of type-1 collagen at room temperature over night. The filters were air dried for 30 minutes immediately before use. Human foreskin fibroblasts AG1523, were grown to confluence in Eagle's MEM supplemented with 10% FBS. The cells were detached by trypsinization (2.5 mg/ml for 10 minutes at 37° C.) and suspended in Eagle's MEM with 10% FBS. The fibroblasts were incubated for 10 minutes with or without FVIIa or FFR-FVIIa before assay. One hundred microliters of the cell suspension (2×10^5 cells/ml) was added above the filter of the Boyden chamber. PDGF-BB was diluted in assay media (Eagle's MEM with 10% FBS) and added below the filter in the chamber. The cells were incubated for 6 hours at 37° C. in a humidified chamber containing 95% air/5% CO2. FVIIa or FFR-FVIIa were present during the entire experiment. The filters were then removed, fixed in ethanol, stained with Mayer's Hemalun, and mounted. Migration was measured as the distance of the two furthest migrating fibroblast nuclei of one high-power field (12.5×24) in focus. The migration distance in each filter was calculated as the mean of the readings of at least three different parts of the filter. Experiments were performed with two to four separate filters for each concentration of chemoattractant. For each set of experiments, the migration of fibroblasts toward the assay media served as control.
In cases when anti-TF monoclonal antibodies or inhibitors to coagulation factors, TAP and Hirudin, were used, cells were preincubated for 10 minutes with these agents, then with or without FVIIa or FFR-FVIIa before the chemotaxis assay was performed. Antibodies, TAP or Hirudin were also present during the entire chemotaxis experiment. In experiments where the effects on the migration response of different inhibitors, LY294002, U73122 or U73343, were tested, cells were preincubated for 30 minutes with the inhibitors at indicated concentrations, and the inhibitors were also present throughout the experiments.

[3] = tested on: PLC-γ1 in AG1518 fibroblasts; test: Assay for agonist-induced PLC-γ1 tyrosine phosphorylation; format: cell-based, human; conditions: 100 nM FVIIa or FFR-FVIIa one hour; PDGF-BB 2, 10 or 100 ng/ml 5 minutes
Procedure: In order to determine whether the PLC-γ1 isoform, which is activated by certain tyrosine kinase receptors, was responsible for the increased PLC activity induced by FVIIa/TF, tyrosine phosphorylation of PLC-γ1 was studied. Fibroblasts were incubated in the absence or presence of 100 nM FVIIa or FFR-FVIIa for one hour, followed by the stimulation with 0, 2, 10 or 100 ng/ml PDGF-BB. After 5 minutes of incubation, the cells were lysed and PLC-γ1 was immunoprecipitated, separated by SDS-PAGE and immunoblotted with antiphosphotyrosine antibodies. […] Thus, other PLC isoforms than PLC-γ1 are responsible for the increased PLC activity after FVIIa stimulation.
Assay for agonist-induced PLC-γ1 phosphorylation. Semi-confluent cultures of AG1518 were serum starved overnight (approx. 20 hours) in medium containing 0.1% FBS, and then incubated in the absence or presence of 100 nM FVIIa or FFR-FVIIa for one hour followed by incubation with 0, 2, 10 or 100 ng/ml PDGF-BB for 5 minutes at 37° C. […]

[4] = 100 nM FVIIa, 0.1 ng/ml PDGF-BB

Molecule: Cc1c2oc3c(C)ccc(C(=O)N[C@@H]4C(=O)N[C@H](C(C)C)C(=O)N5CCC[C@H]5C(=O)N(C)CC(=O)N(C)[C@@H](C(C)C)C(=O)O[C@@H]4C)c3nc-2c(C(=O)N[C@@H]2C(=O)N[C@H](C(C)C)C(=O)N3CCC[C@H]3C(=O)N(C)CC(=O)N(C)[C@@H](C(C)C)C(=O)O[C@@H]2C)c(N)c1=O [actinomycin-D] (I: T[dV]P[Sar][NMeV] / II: T[dV]P[Sar][NMeV]; ester I:1-I:C, II:1-II:C; linker I:N-II:N via Actinocin(9to1))
- effect on VIIa-induced expression of Cyr61 [1]: inhibited the stimulator effect of VIIa

Molecule: Hirudin
- effect on VIIa-induced expression of Cyr61 [1]: failed to abolish
- effect on enhanced migration response (hyperchemotaxis) transduced by FVIIa/TF ([2]; 100 nM FVIIa): Neither addition of 5 U/ml Hirudin, a specific thrombin inhibitor, had any effect
- effect on migration of fibroblasts in response to PDGF without FVIIa [2]: did not influence

Molecule: COc1ccc2c(c1)CC[C@@H]1[C@@H]2CC[C@]2(C)[C@@H](NCCCCCCN3C(=O)CCC3=O)CC[C@@H]12 [U73343]
- effect on FVIIa/TF-mediated chemotactic response to PDGF-BB [2, 4]: No effect on chemotaxis

Molecule: COc1ccc2c(c1)CC[C@@H]1[C@@H]2CC[C@]2(C)[C@@H](NCCCCCCN3C(=O)C=CC3=O)CC[C@@H]12 [U73122]
- concentration giving total inhibition of the hyperchemotactic response [2, 4]: 1 µM
- effect on FVIIa/TF-mediated chemotactic response to PDGF-BB [2, 4]: inhibited the hyperchemotacic response to 0.1 ng/ml PDGF-BB in a dose-dependent way

Molecule: TAP: Recombinant Tick anticoagulant peptide, specifically blocks the active site of FXa (YNRLCIKPRDWIDECDSNEGGERAYFRNGKGGCDSFWICPEDHTGADYYSSYRDCFNACI; UniProt P17726 1-60, looked up)
- effect on VIIa-induced expression of Cyr61 [1]: failed to abolish
- effect on enhanced migration response (hyperchemotaxis) transduced by FVIIa/TF ([2]; 100 nM FVIIa): not blocked
- effect on migration of fibroblasts in response to PDGF without FVIIa [2]: did not influence

Molecule: thrombin
- induction of Cyr61 expression (data not shown) ([1]; conditions not given): could also induce the expression of Cyr61

Molecule: C[C@@H]1C[C@@H]([C@H](O)CC2CC(=O)NC(=O)C2)C(=O)[C@@H](C)C1 [cycloheximide]
- effect on VIIa-induced expression of Cyr61 [1]: not blocked; also recorded: markedly increased the VIIa-induced Cyr61 mRNA steady-state levels

B1: PDGF-BB: platelet-derived growth factor BB, chemotactic factor for human fibroblasts (protein, UniProt P01127 82-190, looked up)
Platelet-derived growth …: SLGSLTIAEPAMIAECKTRTEVFEISRRLIDRTNANFLVWPPCVEVQRCSGCCNNRNVQCRPTQVQLRPVQVRKIEIVRKKPIFKKATVTLEDHLACKCETVAAARPVT
- kinetics of Cyr61 expression upon stimulation ([1]; PDGF-BB 10 ng/ml): expressed only transiently
- time to full repression of Cyr61 after addition of stimuli ([1]; PDGF-BB 10 ng/ml): 2 h
- tyrosine phosphorylation of PLC-γ1, agent alone [3]: significant increase in tyrosine phosphorylation of PLC-γ1
